According to US11389423B2, “Pharmaceutical composition, excipient for the composition and use of the composition” (priority 2018, dated 2022):

Columns and labels:
male rabbits = experiment: Blood pressure measurement and heart rate; assay type: in vivo, New Zealand rabbits; details: for heart rate: anesthetized male rabbits
Description: Male New Zealand rabbits (n=6 per group) were used for pharmacological safety tests. All tests were performed orally (route recommended for humans) and the investigated parameters were determined after a single administration of CBD-SINT. CBD-SINT doses were determined by allometric extrapolation from the average dose used in human patients (25 mg/kg).
The dose of 51 mg/kg was used as the intermediate dose, stipulating a higher and a lower dose. Three dose ranges were used according to the Guide for Conducting Non-Clinical Toxicology and Pharmacological Safety Studies Necessary for Drug Development (ANVISA, 2013; Version 1.2). Thus, the doses used were 17, 51 and 170 mg/kg of CBD-SINT.
b) Blood pressure measurement, after a 6-h fasting, three doses of CBD-SINT (17, 51 and 170 mg/kg) were administered to different groups of male rabbits by gavage. Placebo was administered to the control group (1 mL/kg). 40 minutes after treatments all rabbits were anesthetized with 10 mg/kg diazepam intramuscularly combined with 115 mg/kg ketamine. Then, the animals received a bolus injection of heparin (50 IU) subcutaneously. Tracheostomy was performed to allow animals to breathe spontaneously. Then, the left carotid artery was isolated, cannulated, and connected to a pressure transducer coupled to a PowerLab recording system (Chart 5.0, ADI Instruments, Castle Hill, Australia). After 15 minutes for hemodynamic stabilization, systolic blood pressure (SBP), diastolic blood pressure (DBP) and mean arterial pressure (MAP) were recorded for another 20 min.

[1] = tested on: rats with MPTP microinfusion into the substantia nigra; experiment: Morris water maze (cued test/memory version), MPTP model; assay type: in vivo; details: 36 and 120 mg/kg orally, day 1 to day 10 after MPTP
Description: For the experiments with MPTP (neuroprotection), the animals were divided into the following experimental groups: • MPTP+placebo • MPTP+CBD-SINT 12 mg/kg • MPTP+CBD-SINT 36 mg/kg • MPTP+CBD-SINT 120 mg/kg • Sham+placebo • Naive
CBD-SINT and placebo were administered orally (gavage) for 18 days prior to the administration of the neurotoxin by stereotactic surgery, and for another 10 days after surgery. After the administration of the neurotoxin, the behavioral (locomotor activity) and biochemical (brain dopamine dosage) parameters were evaluated after 24 hours and after 10 days. The memory tests (Morris water maze) were performed daily from day 1 to day 10 after the administration of the neurotoxin (FIG. 13).
The rats were submitted to stereotactic surgery (stereotactic—David Kopf, model 957L) and received bilateral microinfusion of MPTP or 6-OHDA (different groups of rats) directly into the substantia nigra. For surgery, the following stereotaxic coordinates were used: anteroposterior: 5.0 mm from the bregma; mediolateral: ±2.1 mm from the midline and dorsoventral: −7.7 mm from the cranial vault (Paxinos and Watson, 1986). Then, 100 μg MPTP (diluted in 1 μL saline, with a flow of 0.33 μL/min) or 8 μg 6-OHDA (diluted in 2 μL saline with 0.2 μg/μL ascorbic acid, with a flow rate of 0.33 μL/min) were injected. […]

[2] = tested on: Salmonella typhimurium TA100; experiment: AMES test, strain TA100; assay type: cell-based; details: TA100, with (+S9) and without (-S9) metabolic activation, 62.5-375 μg/plate
Excerpt: For the AMES test, the TA 100 and TA 98 strains of Salmonella typhimurium were used. The strain TA 100, which detects mutagens causing base pair replacement in DNA, contains a mutation in the hisG gene (hisG46), which codes for the first histidine biosynthesis enzyme, with the CG pair as the preferred point for reversion. The strain TA 98 has a mutation in the hisD gene to reverse eight repetitive GC residues and detects mutagenic compounds causing the DNA reading frame to shift. According to the methodology of direct incorporation in plates, developed by Maron and Ames (1983), different concentrations of CBD-SINT (375, 250, 125 and 62.5 μg/plate) were mixed with 0.1 mL of the bacteria culture and 2 mL of surface agar (top agar), supplemented with traces of histidine and biotin. For the tests with metabolic activation, 0.5 mL homogenized microsomal fraction S9 of rat liver (post-mitochondrial fraction, supplemented with a cofactor, prepared from the liver of rodents treated with an enzymatic inducing agent, arochloror 1254) (MOLTOX—Molecular Toxicology, USA) were added. As a negative control, double-distilled water (vehicle) was used. As a positive control for TA98, 4-nirophenylenediamine (NPD) dissolved in DMSO was used at a concentration of 10 μg/plate. […] After this period, the number of reversing colonies per plate was counted. […]

Question: C=C(C)[C@@H]1CCC(C)=C[C@H]1c1c(O)cc(CCCCC)cc1O [CBD-SINT, Cannabidiol] was tested. Which heart rate (male rabbits; 17 mg/kg oral) did it give?
Answer: The heart rate was 285±18 bpm.

Question: And the heart rate (male rabbits; 51 mg/kg oral)?
Answer: The heart rate was 279±20 bpm.

Question: What about the heart rate (male rabbits; 170 mg/kg oral) of the same compound?
Answer: The heart rate was 275±17 bpm.

Question: And the “blood pressure levels (systolic, diastolic, mean arterial) compared to the control group” value (male rabbits; anesthetized male rabbits, 17, 51 or 170 mg/kg oral)?
Answer: Its value is “did not significantly change”.

Question: What about the “latency time to find the platform (memory deficit)” value [1] of the same compound?
Answer: Its value is “prevented this deficit”.

Question: And the “frequency of reversible mutants with the increase in concentration” value [2]?
Answer: Its value is “no increase”.

Question: And the “mutagenicity ratios (MR)” value [2]?
Answer: The value was “less than 2”.
